# From patent US9510592B2, “Pesticidal compositions and processes related thereto” (Dow AgroSciences LLC, priority 2012, dated 2016)
# Test system: Beet Armyworm (Spodoptera exigua)
# Assay: Bioassay on Beet Armyworm (BAW), 128-well diet tray assay
# Assay type: in vivo
# Details: percent mortality of second instar larvae, 50 μg/cm^2 on artificial diet, five to seven days, 25° C.; Table 3
# Outline: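 Second-instar larvae (one to five per well) were placed on artificial diet surface-treated with 50 μg/cm^2 compound in acetone-water and held at 25 °C, 14:10 light-dark, for five to seven days. Percent mortality was averaged over eight wells.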
row,SMILES,BAW Rating
1,"N#Cc1cc(/C=C/C(c2cc(Cl)c(Cl)c(Cl)c2)C(F)(F)F)ccc1-n1cnc(N(C(=O)C2CC2)C(=O)C2CC2)n1 (stereo not shown) [DC42, (E)-N-(1-(2-Cyano-4-(4,4,4-trifluoro-3-(3,4,5-trichlorophenyl)but-1-en-1-yl)phenyl)-1H-1,2,4-triazol-3-yl)-N-(cyclopropanecarbonyl)cyclopropanecarboxamide]",A (50-100)
2,Cc1cc(/C=C/C(c2cc(Cl)c(Cl)c(Cl)c2)C(F)(F)F)ccc1C(=O)NC(C)(C)c1ccccn1 (stereo not shown) [AC27],A (50-100)
3,COc1c(Cl)cc(C(/C=C/c2ccc(-n3cncn3)cc2)C(F)(F)F)cc1Cl (stereo not shown) [DC20],A (50-100)
4,Cc1cc(/C=C/C(c2cc(Cl)c(Cl)c(Cl)c2)C(F)(F)F)ccc1C(=O)NCc1cnc(Cl)s1 (stereo not shown) [AC26],A (50-100)
5,O=C(CC(F)(F)F)NCc1ccc(/C=C/C(c2cc(Cl)c(Cl)c(Cl)c2)C(F)(F)F)cc1Br (stereo not shown) [CC25],A (50-100)
6,CC(=O)Nc1ncn(-c2ccc(/C=C/C(c3cc(Cl)cc(Cl)c3)C(F)(F)F)cc2C#N)n1 (stereo not shown) [DC39],A (50-100)
7,Cc1cc(/C=C/C(c2cc(Cl)cc(Cl)c2)C(F)(F)F)ccc1C(=O)NN(C)c1ccccc1F (stereo not shown) [AC45],A (50-100)
8,CCc1cc(/C=C/C(c2cc(Cl)c(F)c(Cl)c2)C(F)(F)F)ccc1C(=O)NC1CS(=O)(=O)C1 (stereo not shown) [AC86],A (50-100)
9,"Cc1cc(/C=C/C(c2cc(Cl)cc(Cl)c2)C(F)(F)F)ccc1C(=S)NCc1ccc(Cl)nc1 (stereo not shown) [AC115, (E)-N-((6-Chloropyridin-3-yl)methyl)-4-(3-(3,5-dichlorophenyl)-4,4,4-trifluorobut-1-en-1-yl)-2-methylbenzothioamide]",A (50-100)
10,Cc1cc(/C=C/C(c2cc(Cl)cc(Cl)c2)C(F)(F)F)ccc1C(=O)NCc1cnc(Cl)s1 (stereo not shown) [AC15],A (50-100)
11,"N#Cc1cc(/C=C/C(c2cc(Cl)c(Cl)c(Cl)c2)C(F)(F)F)ccc1-n1cnc([N+](=O)[O-])n1 (stereo not shown) [DC40, (E)-2-(3-Nitro-1H-1,2,4-triazol-1-yl)-5-(4,4,4-trifluoro-3-(3,4,5-trichlorophenyl)but-1-en-1-yl)benzonitrile]",A (50-100)
12,CCNC(=O)NCc1ccc(/C=C/C(c2cc(Cl)c(Cl)c(Cl)c2)C(F)(F)F)cc1C(F)(F)F (stereo not shown) [CC32],A (50-100)
13,O=C(NCc1ccc(/C=C/C(c2cc(Cl)c(Cl)c(Cl)c2)C(F)(F)F)cc1Br)C1CC1 (stereo not shown) [CC26],A (50-100)
14,O=C(CC(F)(F)F)NCc1ccc(/C=C/C(c2ccc(Cl)c(Cl)c2)C(F)(F)F)cc1Cl (stereo not shown) [CC18],A (50-100)
15,Cc1cc(/C=C/C(c2cc(Cl)cc(Cl)c2)C(F)(F)F)ccc1C(=O)NCc1cnccn1 (stereo not shown) [AC43],A (50-100)
16,Cc1cc(/C=C/C(c2cc(Cl)cc(Cl)c2)C(F)(F)F)ccc1C(=O)N(C)Cc1ccc(Cl)nc1 (stereo not shown) [AC117],A (50-100)
17,CCc1cc(/C=C/C(c2cc(Cl)c(F)c(Cl)c2)C(F)(F)F)ccc1C(=O)NCc1ccc(Cl)nc1 (stereo not shown) [AC72],A (50-100)
18,"Fc1c(Cl)cc(C(/C=C/c2ccc3c(c2)CCC3NCCC(F)(F)F)C(F)(F)F)cc1Cl (stereo not shown) [BC10, (E)-5-(3-(3,5-Dichloro-4-fluorophenyl)-4,4,4-trifluorobut-1-en-1-yl)-N-(3,3,3-trifluoropropyl)-2,3-dihydro-1H-inden-1-amine]",A (50-100)
19,COc1cc(/C=C/C(c2cc(Cl)c(F)c(Cl)c2)C(F)(F)F)ccc1C(=O)NC1CSC1 (stereo not shown) [AC71],A (50-100)

row,SMILES,BAW Rating
1,O=C(Cc1ccc(Cl)nc1)NC1CCc2cc(/C=C/C(c3cc(Cl)c(F)c(Cl)c3)C(F)(F)F)ccc21 (stereo not shown) [BC9],A (50-100)
2,O=C(NC1CSC1)c1ccc(/C=C/C(c2cc(Cl)c(Cl)c(Cl)c2)C(F)(F)F)cc1C(F)(F)F (stereo not shown) [AC34],A (50-100)
3,O=C(NCc1ccc(C(F)(F)F)nc1)c1ccc(/C=C/C(c2cc(Cl)c(Cl)c(Cl)c2)C(F)(F)F)cc1Br (stereo not shown) [AC75],A (50-100)
4,"O=C(NCC(=S)NCC(F)(F)F)c1ccc(/C=C/C(c2cc(Cl)c(Cl)c(Cl)c2)C(F)(F)F)cc1Br (stereo not shown) [AC92, (E)-2-Bromo-N-(2-thioxo-2-((2,2,2-trifluoroethyl)amino)ethyl)-4-(4,4,4-trifluoro-3-(3,4,5-trichlorophenyl)but-1-en-1-yl)benzamide]",A (50-100)
5,COc1cc(/C=C/C(c2cc(Cl)c(F)c(Cl)c2)C(F)(F)F)ccc1C(=O)NC1CS(=O)(=O)C1 (stereo not shown) [AC85],A (50-100)
6,FC(F)(F)C(/C=C/c1ccc(-n2cncn2)cc1Cl)c1cc(Cl)c(Cl)c(Cl)c1 (stereo not shown) [DC66],A (50-100)
7,"O=C(CC(F)(F)F)NCc1ncc(/C=C/C(c2cc(Cl)c(Cl)c(Cl)c2)C(F)(F)F)cc1Cl (stereo not shown) [CC44, (E)-N-((3-Chloro-5-(4,4,4-trifluoro-3-(3,4,5-trichlorophenyl)-but-1-en-1-yl)pyridin-2-yl)methyl)-3,3,3-trifluoropropanamide]",A (50-100)
8,O=C(NCc1ccc(Cl)nc1)c1ccc(/C=C/C(c2cc(Cl)c(Cl)c(Cl)c2)C(F)(F)F)cc1Cl (stereo not shown) [AC28],A (50-100)
9,Cc1cc(/C=C/C(c2cc(Cl)c(Cl)c(Cl)c2)C(F)(F)F)ccc1C(=O)NCC(=O)NCC(F)(F)F (stereo not shown) [AC78],A (50-100)
10,Cc1cc(/C=C\C(c2cc(Cl)cc(Cl)c2)C(F)(F)F)ccc1C(=O)NCC(=O)NC1CC1 (stereo not shown) [AC93],A (50-100)
11,"O=C(NNc1ccc(/C=C/C(c2cc(Cl)c(Cl)c(Cl)c2)C(F)(F)F)cc1)C1CC1 (stereo not shown) [CC50, (E)-N′-(4-(4,4,4-Trifluoro-3-(3,4,5-trichlorophenyl)but-1-en-1-yl)phenyl)cyclopropanecarbohydrazide]",A (50-100)
12,O=C(CC(F)(F)F)NNc1ccc(/C=C/C(c2cc(Cl)c(Cl)c(Cl)c2)C(F)(F)F)cc1 (stereo not shown) [CC51],A (50-100)
13,O=C(CNC(=O)c1ccc(/C=C/C(c2cc(Cl)cc(Cl)c2)C(F)(F)F)cc1F)NCC(F)(F)F (stereo not shown) [AC62],A (50-100)
14,Cc1cc(/C=C/C(c2cc(Cl)c(F)c(Cl)c2)C(F)(F)F)ccc1C(=O)NCc1cc(Cl)ccn1 (stereo not shown) [AC77],A (50-100)
15,Fc1ccc(C(/C=C/c2ccc(-n3cncn3)cc2)C(F)(F)F)cc1 (stereo not shown) [DC7],A (50-100)
16,O=C(NC1CS(=O)(=O)C1)c1ccc(/C=C/C(c2cc(Cl)c(Cl)c(Cl)c2)C(F)(F)F)cc1C(F)(F)F (stereo not shown) [AC35],A (50-100)
17,"CN1CCC(NC(=O)c2ccc(/C=C/C(c3cc(Cl)c(Cl)c(Cl)c3)C(F)(F)F)cc2Br)CC1 (stereo not shown) [AC106, (E)-2-Bromo-N-(1-methylpiperidin-4-yl)-4-(4,4,4-trifluoro-3-(3,4,5-trichlorophenyl)but-1-en-1-yl)benzamide]",A (50-100)
18,"COC(/C=C/c1ccc(-n2cncn2)cc1)(c1cc(Cl)cc(Cl)c1)C(F)(F)F (stereo not shown) [DC70, (E)-1-(4-(3-(3,5-Dichlorophenyl)-4,4,4-trifluoro-3-methoxybut-1-en-1-yl)phenyl)-1H-1,2,4-triazole]",A (50-100)
